Laboratory results from publication PMC8817233 (Journal of medicinal chemistry, 2021).
“Also recorded” adds a separate entry of the source. Each block holds one compound with its values, some of them ahead of it.

Legend:
[1] = biological target: T1, purified full-length β-catenin (Homo sapiens, UniProt P35222); test: Streptavidin pull-down with purified protein; type: binding; conditions: Western blot, from 1 μM
T1 sequence (P35222 1-781): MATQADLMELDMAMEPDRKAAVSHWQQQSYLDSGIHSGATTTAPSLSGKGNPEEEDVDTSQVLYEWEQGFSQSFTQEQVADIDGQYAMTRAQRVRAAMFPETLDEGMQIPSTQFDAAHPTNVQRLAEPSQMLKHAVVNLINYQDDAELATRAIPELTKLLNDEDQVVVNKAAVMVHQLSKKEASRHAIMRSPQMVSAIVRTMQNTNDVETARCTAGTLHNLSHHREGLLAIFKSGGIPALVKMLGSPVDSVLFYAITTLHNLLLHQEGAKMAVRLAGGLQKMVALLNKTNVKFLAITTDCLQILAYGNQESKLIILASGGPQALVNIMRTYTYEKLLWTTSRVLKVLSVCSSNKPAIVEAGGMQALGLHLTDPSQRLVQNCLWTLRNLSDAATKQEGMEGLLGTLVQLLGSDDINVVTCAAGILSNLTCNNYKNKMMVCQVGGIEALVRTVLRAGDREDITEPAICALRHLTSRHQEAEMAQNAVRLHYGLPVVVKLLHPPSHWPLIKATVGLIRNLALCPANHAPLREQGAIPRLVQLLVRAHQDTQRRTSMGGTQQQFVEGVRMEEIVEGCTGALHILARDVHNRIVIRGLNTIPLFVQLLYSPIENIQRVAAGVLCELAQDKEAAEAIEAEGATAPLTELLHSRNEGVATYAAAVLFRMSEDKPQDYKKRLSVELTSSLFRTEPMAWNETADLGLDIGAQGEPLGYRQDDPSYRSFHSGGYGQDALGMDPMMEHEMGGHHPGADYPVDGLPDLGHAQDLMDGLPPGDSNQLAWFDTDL

[2] = biological target: T2, β-catenin in SW480 cell lysates (Homo sapiens, UniProt P35222); test: Streptavidin pull-down from cell lysates; type: binding; conditions: 10 μM
T2 sequence (P35222 1-781): T1 sequence (P35222 1-781)

[3] = biological target: T3, β-catenin R1C (residues 138–781) (Homo sapiens, UniProt P35222); test: Streptavidin pull-down with β-catenin truncate; type: binding
T3 sequence (P35222 138-781): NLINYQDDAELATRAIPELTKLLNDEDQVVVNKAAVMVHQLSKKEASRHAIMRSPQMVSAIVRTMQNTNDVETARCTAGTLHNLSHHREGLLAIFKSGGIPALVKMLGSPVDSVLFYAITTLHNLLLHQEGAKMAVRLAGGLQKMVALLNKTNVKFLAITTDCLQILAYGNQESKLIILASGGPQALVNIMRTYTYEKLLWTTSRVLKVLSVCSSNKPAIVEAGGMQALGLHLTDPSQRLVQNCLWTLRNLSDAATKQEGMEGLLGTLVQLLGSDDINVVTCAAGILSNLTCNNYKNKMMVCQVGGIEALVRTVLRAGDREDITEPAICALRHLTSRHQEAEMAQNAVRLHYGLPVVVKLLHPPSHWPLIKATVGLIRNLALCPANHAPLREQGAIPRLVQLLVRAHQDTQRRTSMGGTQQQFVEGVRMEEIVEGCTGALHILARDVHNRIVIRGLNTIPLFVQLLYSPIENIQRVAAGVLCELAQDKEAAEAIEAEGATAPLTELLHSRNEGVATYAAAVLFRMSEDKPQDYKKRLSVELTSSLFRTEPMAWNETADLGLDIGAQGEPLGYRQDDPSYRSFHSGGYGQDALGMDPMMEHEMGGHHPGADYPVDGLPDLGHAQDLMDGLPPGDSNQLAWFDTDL

[4] = tested on: Axin2 and cyclin D1 in SW480 and Wnt 3a-activated MDA-MB-231 cells; test: Western blot of Wnt target proteins; type: cell-based, human; conditions: SW480 and Wnt 3a-activated MDA-MB-231, 24 h
[5] = tested on: TNBC cells; test: Clonogenic assay; type: cell-based
[6] = tested on: normal mammary epithelial MCF10A cells; test: FACS annexin V/PI apoptosis, normal cells; type: cell-based, human; conditions: 72 h treatment
[7] = Hepatic microsome stability, human; type: in vitro ADME; conditions: liver microsomes, pH 7.4
[8] = Hepatic microsome stability, mouse; type: in vitro ADME; conditions: liver microsomes, pH 7.4
[9] = Mouse PK study; type: in vivo, C57BL/6 mice; conditions: p.o., 20 mg/kg
[10] = tested on: MDA-MB-231 cells; test: Scratch wound healing assay; type: cell-based; conditions: 10% serum, mitomycin 10 μg/mL
[11] = tested on: MDA-MB-231 cells; test: 3D spheroid BME cell invasion assay; type: cell-based; conditions: day 6
[12] = tested on: PDX 4013 tumors; test: PDX 4013 TNBC xenograft, tumor growth and tolerability; conditions: 90 mg/kg orally daily in saline, 5 days
[13] = biological target: T4, β-catenin/BCL9 PPI (Homo sapiens, UniProt P35222); test: AlphaScreen competitive inhibition assay of the β-catenin/BCL9 PPI; type: binding; conditions: for fold less potent than ZW4864 (β-catenin/BCL9 Ki): compared with ZW4864
T4 sequence (P35222 1-781): T1 sequence (P35222 1-781)

[14] = tested on: β-catenin-expressing HEK293 cells; test: TOPFlash luciferase reporter assay, HEK293; type: cell-based; conditions: 200 μM, 24 h
[15] = biological target: BCL9 HD2 (Homo sapiens) (UniProt O00512); conditions: cited from earlier work
Sequence of BCL9 HD2 (Homo sapiens) (O00512 351-374): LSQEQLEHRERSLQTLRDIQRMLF

Compound: CC(C)(Oc1cccc(N2CCC[C@@H](C(=O)N(CCOCCOCCNC(=O)CCCC[C@@H]3SC[C@@H]4NC(=O)N[C@@H]43)Cc3ccc(-c4cn[nH]c4)cc3)C2)c1)C(=O)N1CCNCC1 [Biotin-ZW4864, (R)-N-(4-(1H-Pyrazol-4-yl)benzyl)-1-(3-((2-methyl-1-oxo-1-(piperazin-1-yl)propan-2-yl)oxy)phenyl)-N-(2-(2-(2-(5-((3aS,4S,6aR)-2-oxohexahydro-1H-thieno[3,4-d]imidazol-4-yl)pentanamido)ethoxy)ethoxy)ethyl)piperidine-3-carboxamide]
pull-down of purified full-length β-catenin [1]: bound with the purified full-length β-catenin in a concentration-dependent manner starting at 1 μM; also recorded: pulled down the full-length β-catenin at 1 μM
binding to β-catenin in SW480 cell lysates [2]: effectively bind with β-catenin in SW480 cell lysates
pull-down of β-catenin R1C ([3]; 10 μM): did not pull down β-catenin R1C
pull-down of β-catenin R1C ([3]; 50 μM): pulled down β-catenin R1C

Compound: CC(C)(Oc1cccc(N2CCC[C@@H](C(=O)N(Cc3ccc(-c4cn[nH]c4)cc3)C3CC3)C2)c1)C(=O)N1CCNCC1.Cl [ZW4864, (R)-N-(4-(1H-Pyrazol-4-yl)benzyl)-N-cyclopropyl-1-(3-((2-methyl-1-oxo-1-(piperazin-1-yl)propan-2-yl)oxy)phenyl)piperidine-3-carboxamide]
expression of proteins Axin2 and cyclin D1 (Western blot) [4]: substantially decreased
colony formation [5]: inhibited colony formation
apoptosis (FACS annexin V/PI) [6]: sparing normal mammary epithelial MCF10A cells
microsomal CLint at 1 μM [7]: 18 µL/min/mg
half-life at 1 μM [8]: 9.6 min
CL [9]: 51.10 mL/min/kg
MDA-MB-231 cell migration [10]: suppressed MDA-MB-231 cell migration in a dose-dependent manner
3D spheroid cell invasion [11]: suppressed MDA-MB-231 cell invasion in a dose-dependent manner
body weight and toxicity [12]: no significant decrease in weight or major toxicity issues
tumor growth compared with vehicle [12]: a variation in tumor growth

Compound: CN1CCN(C(=O)C(C)(C)Oc2cccc(N3CCC[C@@H](C(=O)N(Cc4ccc(-c5cn[nH]c5)cc4)C4CC4)C3)c2)CC1 [compound 19, (R)-N-(4-(1H-Pyrazol-4-yl)benzyl)-N-cyclopropyl-1-(3-((2-methyl-1-(4-methylpiperazin-1-yl)-1-oxopropan-2-yl)oxy)phenyl)piperidine-3-carboxamide]
TOPFlash luciferase activity, in words [14]: did not show any activity

Compound: beta-catenin (from UniProt P35222)
Kd [15]: 470 nM

The remaining lines, values ahead:

fold more potent than 3 (β-catenin/BCL9 Ki) ([13]; compared with 3): 2 fold
Compound: CC(C)c1ccc(CN(C(=O)[C@@H]2CCCN(c3cccc(OC(C)(C)C(=O)N4CCNCC4)c3)C2)C2CC2)cc1.Cl [compound 7, (R)-N-Cyclopropyl-N-(4-isopropylbenzyl)-1-(3-((2-methyl-1-oxo-1-(piperazin-1-yl)propan-2-yl)oxy)phenyl)piperidine-3-carboxamide]

fold less potent than ZW4864 (β-catenin/BCL9 Ki) [13]: 10 fold
Compound: CC(C)(Oc1cccc(N2CCC[C@@H](C(=O)N(Cc3ccc(-c4ccn[nH]4)cc3)C3CC3)C2)c1)C(=O)N1CCNCC1.Cl [compound 17, (R)-N-(4-(1H-Pyrazol-5-yl)benzyl)-N-cyclopropyl-1-(3-((2-methyl-1-oxo-1-(piperazin-1-yl)propan-2-yl)oxy)phenyl)piperidine-3-carboxamide]

fold less potent than ZW4864 (β-catenin/BCL9 Ki) [13]: 89 fold
Compound: Cl.Cn1cc(-c2ccc(CN(C(=O)[C@@H]3CCCN(c4cccc(OC(C)(C)C(=O)N5CCNCC5)c4)C3)C3CC3)cc2)cn1 [compound 18, (R)-N-Cyclopropyl-1-(3-((2-methyl-1-oxo-1-(piperazin-1-yl)propan-2-yl)oxy)phenyl)-N-(4-(1-methyl-1H-pyrazol-4-yl)benzyl)piperidine-3-carboxamide]

microsomal CLint at 1 μM [7]: 24 µL/min/mg
half-life at 1 μM [8]: 7.7 min
Compound: CCN(Cc1ccc(-c2cn[nH]c2)cc1)C(=O)[C@@H]1CCCN(c2cccc(OC(C)(C)C(=O)N3CCNCC3)c2)C1.Cl [compound 21, (R)-N-(4-(1H-Pyrazol-4-yl)benzyl)-N-ethyl-1-(3-((2-methyl-1-oxo-1-(piperazin-1-yl)propan-2-yl)oxy)phenyl)piperidine-3-carboxamide]

inhibitory affinity for β-catenin/BCL9 PPI, in words ([13]; AlphaScreen, values only in Figure 2B): maintained low μM inhibitory affinities
Compound: CCOCCN(Cc1ccc(-c2cn[nH]c2)cc1)C(=O)[C@@H]1CCCN(c2cccc(OC(C)(C)C(=O)N3CCNCC3)c2)C1.Cl [compound 22, (R)-N-(4-(1H-Pyrazol-4-yl)benzyl)-N-(2-ethoxyethyl)-1-(3-((2-methyl-1-oxo-1-(piperazin-1-yl)propan-2-yl)oxy)phenyl)piperidine-3-carboxamide]
